Read-outs that look alike come from different tables or passages of the source. Non-standard residues stand in square brackets, D forms with d. Residues, ends and D or L forms follow the SMILES beside them. No end group written: not given here. *: point of attachment. Heptanoyl = CCCCCCC(=O)*; Pentanoyl = CCCCC(=O)*
Columns and labels:
[1] = Carboxyfluorescein release assay, mammalian liposome model; assay type: biochemical; conditions: 65:5:30 POPC:POPS:Chol. liposomes, 25 µM lipid, 10 mM PBS pH 7.4, 10^–5–10^2 µM peptide, 60 min, fluorescence, Hill fit, n = 3; read-out: EC50 Mammalial (concentration that triggers 50% CF release)
In short: (§1)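 CF-loaded extruded 0.1 µm unilamellar liposomes: bacterial POPC:POPG 75:25, mammalian POPC:POPS:Chol 65:5:30. Liposomes at 25 µM lipid in PBS pH 7.4 incubated with peptide (10^–5–10^2 µM; n = 3), fluorescence read every 2.5 min for 1 h. Release normalized to 1% Triton X-100; EC50 from Hill-1 fit.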

[2] = Carboxyfluorescein release assay, bacterial liposome model; assay type: biochemical; conditions: 75:25 POPC:POPG liposomes, 25 µM lipid, 10 mM PBS pH 7.4, 10^–5–10^2 µM peptide, 60 min, fluorescence, Hill fit, n = 3; read-out: EC50 Bacterial (concentration that triggers 50% CF release)
In short: as §1

E. coli (K-12 MG1655) [3] = assay type: cell-based; conditions: K-12, 20 h
Procedure: The broth microdilution method was used to determine minimal inhibitory concentration (MIC) and minimal bactericidal concentration (MBC), in accordance with the EUCAST standards for the broth microdilution method. Two-fold serial dilutions of the lipopeptides were used, and the final concentrations ranged from 0.19 to 100 µM. In brief, two-fold serial dilutions of the lipopeptides were performed in a 96-well plate in PBS, with a final volume of 100 µl per well, after which 100 µl of LB-broth media containing approximately 5 × 10^5 CFU/ml of bacteria was added to each well. The plate was then incubated for 20 h in 37 °C on a shaker (400 rpm). The effect of lipopeptide-antibiotic combinations was investigated by performing checkerboard assays. The assays were performed in accordance with the MIC and MBC tests conducted above, but with horizontal and longitudinal two-fold serial dilutions of the tested compounds. […] The fractional inhibitory concentration (FIC) and fractional bactericidal concentration (FBC) were calculated by the equation (MIC or MBC of peptide in combination/MIC or MBC of peptide alone) + (MIC or MBC of antibiotic in combination/MIC or MBC of antibiotic alone). Synergy was defined as FIC/FBC ≤ 0.5, additive when 0.5 < FIC/FBC ≤ 1, indifferent when 1 < FIC/FBC < 2 and antagonistic when FIC/FBC ≥ 2. All experiments were repeated at least three times.

S. aureus (ATCC 29213) = assay type: cell-based; conditions: ATCC 29213, 20 h
Procedure: The broth microdilution method was used to determine minimal inhibitory concentration (MIC) and minimal bactericidal concentration (MBC), in accordance with the EUCAST standards for the broth microdilution method. […] In brief, two-fold serial dilutions of the lipopeptides were performed in a 96-well plate in PBS, with a final volume of 100 µl per well, after which 100 µl of LB-broth media containing approximately 5 × 10^5 CFU/ml of bacteria was added to each well. The plate was then incubated for 20 h in 37 °C on a shaker (400 rpm). The effect of lipopeptide-antibiotic combinations was investigated by performing checkerboard assays. The assays were performed in accordance with the MIC and MBC tests conducted above, but with horizontal and longitudinal two-fold serial dilutions of the tested compounds. […] The fractional inhibitory concentration (FIC) and fractional bactericidal concentration (FBC) were calculated by the equation (MIC or MBC of peptide in combination/MIC or MBC of peptide alone) + (MIC or MBC of antibiotic in combination/MIC or MBC of antibiotic alone). […] All experiments were repeated at least three times.

K. pneumoniae = conditions: 20 h
E. faecium = conditions: 20 h
P. aeruginosa = conditions: 20 h
[4] = test system: S. aureus (ATCC 29213, MSSA); conditions: ATCC 29213, 20 h
E. coli (K-12 MG1655) [5] = test system: E. coli (K-12 MG1655)
E. cloacae = conditions: 20 h
A. baumannii = conditions: 20 h
human erythrocytes = assay: Hemolytic activity; assay type: cell-based; conditions: 15% suspension in PBS, 1 h, 37 °C, absorbance 540 nm, highest tested concentration 100 µM
Procedure: The hemolytic activity of the lipopeptides was investigated by collecting blood from healthy volunteers in heparinized vacutainers. Briefly, the blood was centrifuged at 600 × g for 5 min and the erythrocyte pellet was washed three times in PBS. The cells were then suspended in PBS and added to 96-well plates (15% erythrocyte suspension/well), containing the lipopeptides with two-fold serial dilution. The plates were incubated for 1 h at 37 °C followed by centrifugation for 5 min at 900×g and absorbance measurement of the supernatants at 540 nm. Hemolytic activity (%) was calculated by subtracting the negative control from all values and normalization against the positive control (0.5% Triton X-100), that was set to 100%. All experiments, each in duplicate, were repeated three times.

[6] = Dynamic light scattering, critical aggregation concentration; assay type: physicochemical; conditions: DLS scattering intensity at 90°, 10 mM PBS pH 7.4, serial dilution 100 µM to 0.01 nM, 22 °C, average of 10 runs of 30 s; estimated
Procedure: Lipopeptide aggregation was evaluated on a ALV/CGS-8F Platform (ALV-GmbH, Langen, Germany) equipped with a […] He–Ne laser. Scattered light was collected at 90°. PBS (10 mM, pH 7.4) was chosen as buffer, and filtered with a 0.22 µm filter prior to use. The samples were prepared in a cylindrical glass cuvette immersed in refractive-index matching toluene. The peptides were serially diluted between 100 µM and 0.01 nM, sonicated for 1 min and incubated for 5 min at 22 °C and vortexed prior to measuring. The temperature was controlled throughout the experiment with the use of a circulating water bath. Data were analysed with ALV-Correlator (Version 3.0, ALV-GmbH, Langen, Germany) software, and the scattering intensity was obtained through an average of 10 consecutive 30 s runs.

[7] = Table 3, K-12 MG1655, broth microdilution, 50:50 PBS/LB-broth, 200 µL, 20 h, 37 °C

In the case of `CCCCC(=O)N[C@H](CC(C)C)C(=O)NCC(=O)N[C@H](CC(C)C)C(=O)N[C@H](CCCCN)C(=O)N[C@H](CC(C)C)C(=O)N[C@H](CC(C)C)C(=O)N[C@H](Cc1c[nH]c2ccccc12)C(=O)N[C@H](CO)C(=O)N[C@H](C)C(=O)N[C@H](Cc1ccc(O)cc1)C(=O)N[C@H](CCCCN)C(=O)N[C@H](Cc1c[nH]cn1)C(=O)N[C@H](CCCNC(=N)N)C(=O)N[C@H](CCCCN)C(=O)N[C@@H](C(=O)N[C@H](CC(C)C)C(N)=O)[C@H](C)O` [D-6-C5-Leu] (Pentanoyl-[dL]G[dL][dK][dL][dL][dW][dS][dA][dY][dK][dH][dR][dK][dT][dL]-NH2), the EC50 [1] is reported as 4080 nM, the EC50 [2] is reported as 130 nM and the “E. coli MBC, lipopeptide alone” value (E. coli (K-12 MG1655) [3]) is reported as 3.1 µM. The “E. coli MIC, lipopeptide alone” value (E. coli (K-12 MG1655) [3]) was 3.1 µM, the “S. aureus MBC, lipopeptide alone” value (S. aureus (ATCC 29213)) was 3.1 µM and the “S. aureus MIC, lipopeptide alone” value (S. aureus (ATCC 29213)) was 3.1 µM. It also gave an MBC (K. pneumoniae) of 25 µM, an MIC (K. pneumoniae) of 12.5 µM and an MBC (E. faecium) of 3.1 µM. For the same compound, the MIC (E. faecium) was 3.1 µM, the MBC (P. aeruginosa) was 25 µM and the MIC (P. aeruginosa) was 12.5 µM. For the same compound, the “S. aureus MBC” value [4] was 3.1 µM, the “S. aureus MIC” value [4] was 3.1 µM and the “E. coli MBC” value (E. coli (K-12 MG1655) [5]; [7]) was 3.1 µM. The “E. coli MIC” value (E. coli (K-12 MG1655) [5]; [7]) was 3.1 µM, the MBC (E. cloacae) was 50 µM and the MIC (E. cloacae) was 25 µM. The MBC (A. baumannii) was 3.1 µM, the MIC (A. baumannii) was 3.1 µM and the “HC, hemolytic concentration at 5% hemolytic activity” value (from here on “HC … at 5% hemolytic activity”) (human erythrocytes) was over 100 µM.

For `CCCCC(=O)N[C@H](CC(C)C)C(=O)NCC(=O)N[C@@H](C(=O)N[C@H](CCCCN)C(=O)N[C@@H](C(=O)N[C@H](CC(C)C)C(=O)N[C@H](Cc1c[nH]c2ccccc12)C(=O)N[C@H](CO)C(=O)N[C@H](C)C(=O)N[C@H](Cc1ccc(O)cc1)C(=O)N[C@H](CCCCN)C(=O)N[C@H](Cc1c[nH]cn1)C(=O)N[C@H](CCCNC(=N)N)C(=O)N[C@H](CCCCN)C(=O)N[C@@H](C(=O)N[C@@H](C(N)=O)[C@H](C)CC)[C@H](C)O)[C@H](C)CC)[C@H](C)CC` [D-6-C5] (Pentanoyl-[dL]G[dI][dK][dI][dL][dW][dS][dA][dY][dK][dH][dR][dK][dT][dI]-NH2), the EC50 [1] was 13100 nM, the EC50 [2] was 120 nM and the “E. coli MIC, lipopeptide alone” value (E. coli (K-12 MG1655) [3]) was 3.1 µM. The “S. aureus MIC, lipopeptide alone” value (S. aureus (ATCC 29213)) was 3.1 µM, the MBC (K. pneumoniae) was 50 µM and the MIC (K. pneumoniae) was 25 µM. For the same compound, the MBC (E. faecium) was 3.1 µM, the MIC (E. faecium) was 3.1 µM and the MBC (P. aeruginosa) was 50 µM. For the same compound, the MIC (P. aeruginosa) was 25 µM, the “S. aureus MBC” value [4] was 6.2 µM and the “S. aureus MIC” value [4] was 3.1 µM. The “E. coli MBC” value (E. coli (K-12 MG1655) [5]; [7]) was 3.1 µM, the “E. coli MIC” value (E. coli (K-12 MG1655) [5]; [7]) was 3.1 µM and the MBC (E. cloacae) was 50 µM. The MIC (E. cloacae) was 25 µM, the MBC (A. baumannii) was 3.1 µM and the MIC (A. baumannii) was 3.1 µM. The “HC … at 5% hemolytic activity” value (human erythrocytes) was over 100 µM.

In the case of `CCCCC(=O)N[C@@H](CC(C)C)C(=O)NCC(=O)N[C@@H](CC(C)C)C(=O)N[C@@H](CCCCN)C(=O)N[C@@H](CC(C)C)C(=O)N[C@@H](CC(C)C)C(=O)N[C@@H](Cc1c[nH]c2ccccc12)C(=O)N[C@@H](CO)C(=O)N[C@@H](C)C(=O)N[C@@H](Cc1ccc(O)cc1)C(=O)N[C@@H](CCCCN)C(=O)N[C@@H](Cc1c[nH]cn1)C(=O)N[C@@H](CCCNC(=N)N)C(=O)N[C@@H](CCCCN)C(=O)N[C@H](C(=O)N[C@@H](CC(C)C)C(N)=O)[C@@H](C)O` [L-6-C5-Leu] (Pentanoyl-LGLKLLWSAYKHRKTL-NH2), the EC50 [1] is reported as 3990 nM, the EC50 [2] is reported as 110 nM and the MBC (K. pneumoniae) is reported as 50 µM. For the same compound, the MIC (K. pneumoniae) was 25 µM, the MBC (E. faecium) was 6.3 µM and the MIC (E. faecium) was 3.1 µM. The MBC (P. aeruginosa) was 50 µM, the MIC (P. aeruginosa) was 25 µM and the “S. aureus MBC” value [4] was 3.1 µM. The “S. aureus MIC” value [4] was 3.1 µM, the “E. coli MBC” value (E. coli (K-12 MG1655) [5]; [7]) was 6.2 µM and the “E. coli MIC” value (E. coli (K-12 MG1655) [5]; [7]) was 6.2 µM. For the same compound, the MBC (E. cloacae) was over 100 µM, the MIC (E. cloacae) was over 100 µM and the MBC (A. baumannii) was 3.1 µM. The MIC (A. baumannii) was 3.1 µM and the “HC … at 5% hemolytic activity” value (human erythrocytes) was over 100 µM.

In the case of `CCCCCCC(=O)N[C@@H](CC(C)C)C(=O)NCC(=O)N[C@H](C(=O)N[C@@H](CCCCN)C(=O)N[C@H](C(=O)N[C@@H](CC(C)C)C(=O)N[C@@H](Cc1c[nH]c2ccccc12)C(=O)N[C@@H](CO)C(=O)N[C@@H](C)C(=O)N[C@@H](Cc1ccc(O)cc1)C(=O)N[C@@H](CCCCN)C(=O)N[C@@H](Cc1c[nH]cn1)C(=O)N[C@@H](CCCNC(=N)N)C(=O)N[C@@H](CCCCN)C(=O)N[C@H](C(=O)N[C@H](C(N)=O)[C@@H](C)CC)[C@@H](C)O)[C@@H](C)CC)[C@@H](C)CC` [L-6-C7] (Heptanoyl-LGIKILWSAYKHRKTI-NH2), the EC50 [1] is reported as 1950 nM, the EC50 [2] is reported as 220 nM and the “critical aggregation concentration (CAC)” value [6] is reported as 0.8 µM. For the same compound, the “S. aureus MBC” value [4] was 3.1 µM, the “S. aureus MIC” value [4] was 3.1 µM and the “E. coli MBC” value (E. coli (K-12 MG1655) [5]; [7]) was 6.2 µM. For the same compound, the “E. coli MIC” value (E. coli (K-12 MG1655) [5]; [7]) was 6.2 µM and the “HC … at 5% hemolytic activity” value (human erythrocytes) was 80 µM.

For LGIKILWSAYKHRKTI-NH2 [L-6], the EC50 [1] was over 100000 nM, the EC50 [2] was 150 nM and the “critical aggregation concentration (CAC)” value [6] was 10 µM. For the same compound, the “S. aureus MBC” value [4] was over 100 µM, the “S. aureus MIC” value [4] was over 100 µM and the “E. coli MBC” value (E. coli (K-12 MG1655) [5]; K-12, 20 h) was over 100 µM. For the same compound, the “E. coli MIC” value (E. coli (K-12 MG1655) [5]; K-12, 20 h) was over 100 µM.
